Like-named read-outs stand apart in the source and are kept apart here.
Legend:
Format in all cases: cell-based
mouse P23H opsin mutant = mouse P23H opsin mutant (Mus musculus, UniProt P15409, P23H); assay: β-Gal fragment complementation assay: rescue of P23H opsin transport from ER to plasma membrane, U2OS(PLC-EA/P23H-PK) cells; conditions: for Emax: U2OS
Excerpt: U2OS(PLC-EA/P23H-PK) cells. A U2OS stable cell line was generated by DiscoveRx, Inc. (Fremont, CA, USA) for the β-Gal fragment complementation assay used in the small molecule HTS for rescue of P23H opsin transport. U2OS cells that continually express P23H-PK and PLC-EA fusion proteins were generated. Briefly, this small subunit of […] (PK fragment) was fused to the C-terminal of the mouse P23H opsin mutant, while the large EA fragment, a subunit of […], was fused with PLC, a plasma membrane anchored peptide. Both constructs were subcloned by DicoveRx, Inc. and transferred into U2OS cells by viral infections. Positive clones were selected under treatment with hygromycin and geneticin.
Briefly, U2OS(PLC-EA/P23H-PK) cells were suspended in assay medium at 3×10^5 cells mL^−1. The cell suspension was dispensed into 384-well plates (Greiner Bio-one, Monroe, NC, USA) at 20 μL per well, with a Multidrop dispenser (Thermo Scientific, Waltham, MA, USA). Plates with cells then were centrifuged at 200 g for 15 s before incubation at 37° C. with 5% CO2. Plates were removed 24 h later for treatment with tested compounds. A total of 248 plates containing 79,080 compounds from three small molecule libraries were paired with an equal number of assay plates with cultured cells. Due to a limited capacity, these plates were assayed in seven batches. An average of 56.3 nL of 10 mM compound in DMSO was dispensed into each well from column 3 to 22 of paired assay plates using a 50 nL 384-pintool system, such that the final concentration of each compound was 22.52 μM on average. […] Each assay plate was shaken for 5 s before further incubation at 37° C. with 5% CO2. […] Assay plates were incubated in the dark for 60-90 min, and luminescence was read from each assay plate with an Envision microplate reader (PerkinElmer) during a 0.1 s per well integration time. The mean and s.d. of readouts in column 2 of each plate were calculated as Mean0% and SD0%, whereas the average and s.d. of readouts in column 23 were calculated as Mean100% and SD100%. Equation 1: Activity scores (%)=(RLUcp−Mean0%)/(Mean100%−Mean0%)×100%, where RLUcp is the relative luminescence unit derived for cells treated with a compound. Equation 2: Z′-factor=1-3×(SD0%+SD100%)/(Mean100%−Mean0%); Equation 3: signal-to-background (S/B) ratio=Mean100%/Mean0%. Activities of all tested compounds were registered with their compound ID by GeneData Screener (Genedata, Basel, Switzerland) and Pipeline Pilot software (Accelrys, San Diego, CA, USA). Hits, cherry-picked from a separate stock dose-dependent activity test, were selected with an activity score cutoff at 20%. Activity of each hit was tested again with the β-Gal fragment complementation assay in a 10-dose series with each dose tested in triplicate. The 10 doses tested were 80, 40, 20, 10, 5, 2.5, 1.25, 0.625, 0.313, and 0.156 μM. Dose-dependent curves of each hit compound were fitted with GeneData and Origin software.
Detailed synthetic steps are described in FIG. 18. […] YC-002-YC-021 were purchased from commercial vendors including Enamine LLC (Monmouth Jct., NJ, USA), Matrix Scientific (Columbia, SC, USA) and Tokyo Chemical Industry Co., Ltd. (Portland, OR, USA). […] Activities of YC compounds were tested with the β-Gal fragment complementation assay, as described in a prior section. All YC compounds were tested at 10 doses, each in triplicate: 80, 40, 20, 10, 5, 2.5, 1.25, 0.625, 0.313, and 0.156 μM.

mouse P23H opsin = biological target: T1, mouse P23H opsin (Mus musculus, UniProt P15409, P23H); assay: Immunostain and image-based high-content analysis of P23H mutant opsin in NIH3T3 cells; conditions: ratio of P23H rod opsin fluorescence on plasma membrane to whole cell; for EC50: read-out: Immunostaining HCS MEM-Total ratio EC50
T1 construct: expressed in transfected cells
Excerpt: Three NIH3T3 stable cell lines, NIH3T3-(WT-opsin/GFP), NIH3T3-(P23H-opsin/GFP), and NIH3T3-(GFP) were previously generated which stably express mouse WT opsin and GFP; P23H opsin and GFP; and only GFP, respectively. GFP is expressed separately from opsin in these cell lines. NIH3T3 cells were from ATCC. DNA constructs for generating these stable cell lines were confirmed by Sanger sequencing. Expression of GFP was confirmed by green fluorescence imaging, and expression of P23H and WT opsin were confirmed by immunoblots.
To characterize the effect of active compounds on the localization of P23H mutant opsin in mammalian cells, an image-based assay was used with cells immunostained for WT or P23H mutant opsin protein. Briefly, NIH3T3-(P23H-opsin/GFP) or NIH3T3-(WT-opsin/GFP) cells were seeded at 5,000 cells per well in a 384-well cell-carrier plate (PerkinElmer) and incubated at 37° C. with 5% CO2 for 2 h. Cells were treated with compounds as described for the β-Gal fragment complementation assay and incubated in assay medium for 24 h. The assay medium then was aspirated, and cells were fixed with 4% paraformaldehyde at 20 μL per well for 20 min at RT. Cells were immunostained in one of two ways: cell membranes were either permeabilized with 0.1% Triton X-100 for 15 min or left intact and then were incubated with 10% goat serum (Life Technologies). To detect opsin on the cell plasma membrane only, intact cells were immunostained with 20 μL per well of 20 μg mL^−1 B6-30 anti-rhodopsin antibody that recognizes the N-terminal epitope on the extracellular side of rhodopsin. To detect total opsin, cells were permeabilized with Triton X-100 and immunostained with 50 μg mL^−1 1D4 anti-rhodopsin antibody specific for the C-terminal epitope on the intracellular side of rhodopsin. Opsin immunostaining was visualized by incubating cells with 5 μg mL^−1 Cy3-conjugated goat anti-mouse IgG antibody. Three washes with phosphate-buffered saline (PBS: 10 mM Na2HPO4, 1.8 mM KH2PO4, pH 7.4, 137 mM NaCl, and 2.7 mM KCl) were performed between each step of incubation with antibody. In the last wash with PBS, DAPI was added to each well at 300 nM. Fluorescence images were obtained with the Operetta High Content Imaging System (PerkinElmer) using a 20× long objective. Five fields were taken of each well for cell images using three channels for fluorescence: GFP (100 ms), Cy3 (300 ms), and DAPI (50 ms). Images were analyzed with Acapella software from the Columbus data storage and analysis system (PerkinElmer). For cells immunostained with opsin on the non-permeabilized cell membrane only, an average of total fluorescence intensity of Cy3 per cell was used to quantify opsin in each well of the 384-well plate. For cells immunostained with opsin in permeabilized whole cells, an average ratio of Cy3 intensity on the cell plasma membrane (PM) to that of the entire cell (opsin ratio PM-to-total) was calculated for each well of a 384-well plate to quantify opsin transport to the plasma membrane. The plasma membrane was defined within ±5% of the cell border.

P23H opsin = biological target: T2, P23H opsin (Mus musculus, UniProt P15409, P23H); assay: Immunoblot of P23H opsin glycosylation in NIH3T3 cells; design: key to Improved glycosylation: n = no; y = yes; conditions: P23H opsin
T2 construct: expressed in transfected cells
Method: NIH3T3-(P23H-opsin/GFP) or NIH3T3-(WT-opsin/GFP) cells were seeded in a 48-well plate (Corning Costar) at 3.2×10^5 cells per well and incubated at 37° C. with 5% CO2 for 2 h. One hundred-μL of assay medium containing a compound at 5× its final concentration was added to each well. The plate was gently shaken for 5 s before further incubation at 37° C. with 5% CO2 for 24 h. The assay medium then was aspirated, and cells were lysed with 100 μL per well PBS containing 0.1% Triton X-100 and complete protease inhibitor cocktail (Roche, Basel, Switzerland) followed by sonication for 3 s. Protein concentrations were determined with the Bradford assay. For PNGase F catalyzed deglycosylation, 3 μL of PNGase F (1,500 U, NEB) was added to the cell lysate and the mixture was incubated at room temperature for 1 h before immunoblotting. For NIH3T3-(P23H-opsin/GFP) cells, 15 μg of total protein were loaded per well onto an SDS-polyacrylamide gel; whereas for NIH3T3-(WT-opsin/GFP) cells, 10 μg of total protein was loaded per well. Opsin protein was immunostained with 0.2 μg mL^−1 horseradish peroxidase-conjugated 1D4 anti-rhodopsin antibody. Band intensities were measured with ImageJ software (http://imagej.nih.gov/ij/; National the Institutes of Health, Bethesda, MD, USA) and normalized to a glyceraldehyde 3-phosphate dehydrogenase (GAPDH) loading control.

[1] = Table 2, modifications at C3 of the furan-2(5H)-one ring, read-out: Potency EC50
[2] = Table 1, experimental maximum, read-out: β-Gal fragment complementation assay Activity score (%) Max (Exp)
[3] = Table 1, fitted maximum, read-out: β-Gal fragment complementation assay Activity score (%) Max (fit)
[4] = read-out: β-Gal fragment complementation assay Activity score (%) EC50
[5] = Table 5, more than one site modified, read-out: Potency
[6] = Table 3, modifications at C4 of the furan-2(5H)-one ring, read-out: Potency

| Structure (SMILES) | Emax (mouse P23H opsin mutant; read-out: Efficacy (%)) [%] | Emax (mouse P23H opsin mutant; [2]) [%] | Emax (mouse P23H opsin mutant; [3]) [%] | EC50 (mouse P23H opsin mutant; [4]) [µM] | Immunostaining HCS MEM-Total ratio Max (fit) (mouse P23H opsin) | EC50 (mouse P23H opsin) [µM] | Improved glycosylation (P23H opsin) | other results |
| --- | --- | --- | --- | --- | --- | --- | --- | --- |
| Cc1cc(OCC(=O)Nc2cc(N3CCOCC3)ncn2)cc(C)c1Cl [Compound F6257-1860] | – | 211 | 234 | 10.7 | 0.022 | 1.07 | n | – |
| O=C1OCC(c2ccco2)=C1c1cccs1 [YC-049] | – | – | – | – | – | – | – | Efficacy (%) (mouse P23H opsin mutant; Table 3, normalized to 5 μM 9-cis-retinal): 112% |
| O=C(NCCn1ncc2c(NCc3ccco3)ncnc21)c1cc(-c2ccccc2)on1 [Compound F2902-1134] | – | 23.1 | 31.5 | 21.6 | 0.031 | 4.15 | n | – |
| O=C(Cn1c2c(c(=O)n(C3CCCCC3)c1=O)CCC2)Nc1cccc(F)c1 [Compound F5111-0031] | – | 60.4 | 165 | 54.3 | 0.025 | 6.76 | y | – |
| COCCNC(=O)c1sc2c(cnc3ccc(OC)cc32)c1-c1ccccc1 [Compound F3382-5924] | – | 931 | 155 | 28.6 | 0.046 | 2.42 | y | – |
| O=C(NCCCOc1cccc2cccnc12)c1cc(-c2ccccc2)on1 [Compound F5875-0200] | – | 31.8 | 51.6 | 25 | 0.041 | 6.2 | n | – |
| O=C(C1CC1)N(CCn1cccn1)c1nc2c(Cl)cccc2s1 [Compound F5581-0240] | – | 244 | 230 | 5.93 | 0.010 | 0.64 | y | – |
| O=C(NCC#CCN1CCCC1)c1cc(-c2ccccc2)on1 [Compound F6244-1415] | – | 24.8 | 25.2 | 8.61 | 0.063 | 4.2 | n | – |
| O=C(NCCCn1cccc1)c1cc(-c2ccccc2)on1 [Compound F5937-0207] | – | 32.8 | 37.3 | 8.38 | 0.021 | 1.33 | n | – |

Continued, in another order:

| Emax (mouse P23H opsin mutant; read-out: Efficacy (%)) [%] | Emax (mouse P23H opsin mutant; [2]) [%] | Emax (mouse P23H opsin mutant; [3]) [%] | EC50 (mouse P23H opsin mutant; [4]) [µM] | Immunostaining HCS MEM-Total ratio Max (fit) (mouse P23H opsin) | EC50 (mouse P23H opsin) [µM] | Improved glycosylation (P23H opsin) | Structure (SMILES) | other results |
| --- | --- | --- | --- | --- | --- | --- | --- | --- |
| 38.3 | – | – | – | – | – | – | COc1ccccc1C1=C(c2ccc(Cl)s2)COC1=O [YC-033] | EC50 (mouse P23H opsin mutant; [1]): 8.5 µM |
| 214 | – | – | – | – | – | – | O=C1OCC(c2ccc(Cl)s2)=C1c1ccccn1 [YC-043] | EC50 (mouse P23H opsin mutant; [1]): 19 µM |
| 10 | – | – | – | – | – | – | O=C1OCC(c2ccc(Br)s2)=C1c1ccc(F)cc1 [YC-009] | EC50 (mouse P23H opsin mutant; [5]): 7.2 µM |
| 6 | – | – | – | – | – | – | O=C1OCC(c2cccs2)=C1c1cccs1 [YC-002] | EC50 (mouse P23H opsin mutant; [6]): 33 µM |
| 10 | – | – | – | – | – | – | O=C1OCC(c2ccc(F)cc2)=C1c1cccs1 [YC-044] | EC50 (mouse P23H opsin mutant; [6]): 37.6 µM |
| 5 | – | – | – | – | – | – | O=C1OCC(c2ccc(Cl)cc2)=C1c1cccs1 [YC-003] | EC50 (mouse P23H opsin mutant; [6]): 22 µM |
| 160 | – | – | – | – | – | – | O=C1OCC(c2ccc(F)s2)=C1c1cccs1 [YC-021] | EC50 (mouse P23H opsin mutant; [6]): 103 µM |
| 95 | – | – | – | – | – | – | Cc1sc(C)c(C2C(=O)OC(=O)C2c2c(C)sc(C)c2C)c1C (centres unmarked) [YC-018] | – |
| 288 | – | – | – | – | – | – | O=C1OCC(c2ccc(Cl)s2)=C1c1ccccc1Cl [YC-032] | EC50 (mouse P23H opsin mutant; [1]): 5.8 µM |
| 43.5 | – | – | – | – | – | – | O=C1OCC(c2ccc(Cl)s2)=C1c1cccc(Cl)c1 [YC-034] | EC50 (mouse P23H opsin mutant; [1]): 4.75 µM |
| 10 | – | – | – | – | – | – | O=C1OCC(c2ccc(Br)s2)=C1c1ccc(Cl)cc1 [YC-011] | EC50 (mouse P23H opsin mutant; [5]): 7.5 µM |
| 11 | – | – | – | – | – | – | O=C1OCC(c2ccc(Br)s2)=C1c1ccc(Cl)c(Cl)c1 [YC-008] | EC50 (mouse P23H opsin mutant; [5]): 25 µM |
| 111 | – | – | – | – | – | – | O=C1OCC(c2ccc(Cl)s2)=C1c1ccccc1[N+](=O)[O-] [YC-013] | EC50 (mouse P23H opsin mutant; [1]): 11 µM |
